# Patent US10054581B1, “Inhibitors of notch signaling pathway and use thereof in treatment of cancers” (Ecole Polytechnique Federale de Lausanne (EPFL), priority 2011, dated 2018)
# Entries after “also recorded” stand apart in the source; their conditions may differ.
# Legend:
# [1] = tested on: Notch target genes Hes1, cMyc and Dtx1; NICD; assay: Notch target gene expression in human cancer cell lines (qRT-PCR, Western blot); type: cell-based
# Protocol: Total RNA was extracted from cells using TRIzol® extraction kit (Invitrogen). Briefly, 1×10^6 cells were washed with ice-cold 1×PBS and lysed in 1 ml of TRIzol® solution for 5 minutes at room temperature to dissociate nucleoprotein complexes. Lysed cells were then treated with 200 μl of chloroform and shaked vigorously for 15-30 seconds and incubated at room temperature for 2-3 minutes. The samples were centrifuged at 14000 rpm using Eppendorf table top centrifuge for 10 minutes at 4° C. Following centrifugation, upper aqueous phase was transferred to new eppendorf tubes. […]
# Total RNA extracted from the cell was used to synthesize cDNA by reverse transcription reaction. […] RNA concentration was measured using NanoDrop®ND-1000 spectrophotometer (Witec AG) and 500 ng of total RNA was mixed with a 10 mM mix of dNTPs and 100 ng of random primers. […]
# Cells were lysed in RIPA buffer (50 mM Tris.Cl, pH 7.5, 150 mM NaCl, 1% nonidet P-40, 0.5% sodium deoxycholate and 0.1% SDS) for 30 minutes at 4° C. […] The protein concentration was determined by Bradford assay using spectrophotometer (Ultrospec 3000 pro). […]
# For immunoblotting, membranes were blocked with 5% milk and incubated overnight with primary antibodies at 4° C. […] Signal was detected with Super Signal West chemiluminescent substrate (Thermo Scientific, catalog number 34077). […]
# TALL1 = assay: Cell cycle analysis (Ki67 and Hoechst stain), TALL1; type: cell-based, human; settings: 10 μM
# Protocol: FIGS. 6A-6D show 6-(4-Tert-Butylphenoxy)Pyridin-3-Amine (I3) induces G0/G1 cell cycle arrest and apoptosis in human T cell acute lymphoblastic leukemia cell lines and human breast cancer cell line HCC1187. […] Percentage of Annexin V positive (apoptotic) cell population was measured using flow cytometry.
# In addition to induction of apoptosis, the proliferative arrest observed in 6-(4-Tert-Butylphenoxy)Pyridin-3-Amine (I3) treated human leukemic cell lines and breast cancer cell line also appears to be due to cell cycle arrest in G0/G1 phase of the cell cycle. Leukemic cell lines (RPMI8402, KOPTK1 and TALL1) and breast cancer cell lines were treated with 6-(4-Tert-Butylphenoxy)Pyridin-3-Amine (I3) for 48 hours and cell cycle status was determined using Ki67 and Hoechst stain.
# [2] = tested on: Wnt signalling (β-catenin-TCF/LEF driven luciferase); assay: Wnt signalling TOP-luciferase assay in HeLa cells; type: cell-based; settings: HeLa cells co-transfected with β-catenin and TOP-luciferase
# From the text: One of the concerns about the activity of the chemical compound 6-(4-Tert-Butylphenoxy)Pyridin-3-Amine (I3) is its specificity towards the Notch signalling pathway. In order to test whether 6-(4-Tert-Butylphenoxy)Pyridin-3-Amine (I3) could also block other developmental pathways, Applicants have tested its ability to block the Wnt and Hedgehog signalling pathways. In summary, to measure Wnt signalling, HeLa cells were transfected with a plasmid containing a promoter consisting of TCF/LEF binding sites and thereby driving the expression of a luciferase gene (TOP-luciferase). To activate the Wnt pathway, a plasmid encoding for β-catenin was co-transfected into HeLa cells. The co-transfected cells were incubated in the presence or absence of the 6-(4-Tert-Butylphenoxy)Pyridin-3-Amine (I3) chemical compound. Transient introduction of β-catenin leads to an upregulation of Wnt signalling as measured by β-catenin-TCF/LEF driven luciferase activity.
# [3] = tested on: intestinal tissue (goblet cells); assay: Intestinal toxicity in mice (Alcian blue staining for goblet cells); type: in vivo, mouse
compound,measurement,setting,value
"CC(C)(C)c1ccc(Oc2ccc(N)cn2)cc1 [I3, 6-(4-Tert-Butylphenoxy)Pyridin-3-Amine]",NICD protein levels,"[1]; RPMI 8402, HPB ALL, KOPTK1, 24 hours, Western blot",reduced levels of NICD
same,"expression of Notch target genes Hes1, cMyc and Dtx1 (mRNA and protein)","[1]; RPMI 8402, HPBALL, KOPTK1 and PANC1, 24 hours",induced a statistically significant downregulation of Notch target genes; also recorded: inhibits Notch signalling and downregulates its target genes in human cancer cell lines; also recorded: downregulation of Notch target genes in human T-ALL cell lines
same,cell cycle status,TALL1; 48 hours,induces an arrest in the G0/G1 phase of the cell cycle
same,increase in cells arrested in G0/G1 phase of the cell cycle,"TALL1; stated jointly for RPMI8402, KOPTK1 and TALL1",20-30%
same,Wnt pathway activation,[2],does not block the Wnt pathway activation
same,intestinal architecture / goblet cell metaplasia,"[3]; C57B16 mice, 25 mg/kg i.p., 7 consecutive days, analysed day 8, 25 mg/kg",completely normal with intact architecture and no indication of goblet cell metaplasia; also recorded: did not perturb intestinal homeostasis and without any indication of goblet cell accumulation
same,goblet cell numbers and intestinal architecture,"[3]; NOD/SCID γc−/− mice with RPMI 8402 xenotransplant, treated for 27 days",did not reveal any abnormality in the goblet cell numbers and intestinal architecture
